Source: patent US20260285850A1, “SUBSTITUTED OXAZOLIDINONES AND IMIDAZOLINONES AS HERBICIDES” (FMC CORPORATION, priority 2023, published 2026)

Legend:
Type in all cases: in vivo
[1] = tested on: barnyardgrass (Echinochloa crus-galli); assay: Test A preemergence soil spray, visual injury rating 0-100; details: 10 days
How it was run: (§1)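 Visual injury, scored 0-100 (100 = complete control) against untreated plants, 10 days after greenhouse treatment. Test chemicals in surfactant-containing non-phytotoxic solvent were applied in loam soil and sand, as a preemergence soil spray on seeds or postemergence to plants at the one- to two-leaf stage.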

[2] = tested on: blackgrass (Alopecurus myosuroides); assay: as above; details: 10 days
How it was run: as §1

[3] = tested on: corn (Zea mays); assay: as above; details: 10 days
How it was run: as §1

[4] = tested on: green foxtail (Setaria viridis); assay: as above; details: 10 days
How it was run: as §1

[5] = tested on: kochia (Bassia scoparia); assay: as above; details: 10 days
How it was run: as §1

[6] = tested on: oat, wild (wild oat, Avena fatua); assay: as above; details: 10 days
How it was run: as §1

[7] = tested on: palmer (palmer amaranth, palmer pigweed, Amaranthus palmeri); assay: as above; details: 10 days
How it was run: as §1

[8] = tested on: ragweed (common ragweed, Ambrosia artemisiifolia); assay: as above; details: 10 days
How it was run: as §1

[9] = tested on: ryegrass, Italian (italian ryegrass, Lolium multiflorum); assay: as above; details: 10 days
How it was run: as §1

[10] = tested on: soybean (Glycine max); assay: as above; details: 10 days
How it was run: as §1

[11] = tested on: wheat (Triticum aestivum); assay: as above; details: 10 days
How it was run: as §1

[12] = tested on: barnyardgrass (Echinochloa crus-galli); assay: Test A postemergence application, visual injury rating 0-100
How it was run: as §1

[13] = tested on: blackgrass (Alopecurus myosuroides); assay: as above
How it was run: as §1

[14] = tested on: corn (Zea mays); assay: as above
How it was run: as §1

[15] = tested on: galium (catchweed bedstraw, Galium aparine); assay: as above
How it was run: as §1

[16] = tested on: green foxtail (Setaria viridis); assay: as above
How it was run: as §1

[17] = tested on: horseweed (Erigeron canadensis); assay: as above
How it was run: as §1

[18] = tested on: kochia (Bassia scoparia); assay: as above
How it was run: as §1

[19] = tested on: oat, wild (wild oat, Avena fatua); assay: as above
How it was run: as §1

[20] = tested on: palmer (palmer amaranth, palmer pigweed, Amaranthus palmeri); assay: as above
How it was run: as §1

[21] = tested on: ragweed (common ragweed, Ambrosia artemisiifolia); assay: as above
How it was run: as §1

[22] = tested on: ryegrass, Italian (italian ryegrass, Lolium multiflorum); assay: as above
How it was run: as §1

[23] = tested on: soybean (Glycine max); assay: as above
How it was run: as §1

[24] = tested on: wheat (Triticum aestivum); assay: as above
How it was run: as §1

[25] = tested on: barnyardgrass (Echinochloa crusgalli); assay: Test B flooded paddy test, visual plant response rating 0-100; details: 250 g ai/ha, Flood, applied to paddy water, evaluated after 13 days
How it was run: (§2)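 2-leaf plants; flood 3 cm over soil; compound dosed into paddy water; depth kept constant; greenhouse 13 d; visual scoring vs controls. Dash = no result.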

[26] = tested on: ducksalad (Heteranthera limosa); assay: as above; details: 250 g ai/ha, Flood, applied to paddy water, evaluated after 13 days
How it was run: as §2

[27] = tested on: rice (Oryza sativa); assay: as above; details: 250 g ai/ha, Flood, applied to paddy water, evaluated after 13 days
How it was run: as §2

[28] = tested on: sedge, umbrella (small-flower umbrella sedge, Cyperus difformis); assay: as above; details: 250 g ai/ha, Flood, applied to paddy water, evaluated after 13 days
How it was run: as §2

[29] = 62 g ai/ha, 0 = no effect, 100 = complete control
[30] = 62 g ai/ha, postemergence, 10 days, 0 = no effect, 100 = complete control
[31] = Postemergence, 16 g ai/ha, greenhouse 10 days, 0 no effect, 100 complete control

CCOC(=O)C1CC(NC(=O)C2(C)CN(c3cc(F)cc(F)c3)C(=O)O2)C1 (stereo not shown) [Compound 125]
Barnyardgrass plant response rating ([1]; 16 g ai/ha, 0 to 100 scale): 0 | Barnyardgrass plant response rating (0-100) [1, 29]: 50 | Blackgrass plant response rating ([2]; 16 g ai/ha, 0 to 100 scale): 50 | Blackgrass plant response rating (0-100) [2, 29]: 90 | Corn plant response rating ([3]; 16 g ai/ha, 0 to 100 scale): 0 | Corn plant response rating (0-100) [3, 29]: 90 | Foxtail, Green plant response rating ([4]; 16 g ai/ha, 0 to 100 scale): 10 | Foxtail, Green plant response rating (0-100) [4, 29]: 90 | Kochia plant response rating ([5]; 16 g ai/ha, 0 to 100 scale): 0 | Kochia plant response rating (0-100) [5, 29]: 90 | Oat, Wild plant response rating ([6]; 16 g ai/ha, 0 to 100 scale): 90 | Oat, Wild plant response rating (0-100) [6, 29]: 90 | Pigweed, Palmer plant response rating ([7]; 16 g ai/ha, 0 to 100 scale): 20 | Pigweed, Palmer plant response rating (0-100) [7, 29]: 50 | Ragweed plant response rating ([8]; 16 g ai/ha, 0 to 100 scale): 0 | Ragweed plant response rating (0-100) [8, 29]: 20 | Ryegrass, Italian plant response rating ([9]; 16 g ai/ha, 0 to 100 scale): 0 | Ryegrass, Italian plant response rating (0-100) [9, 29]: 90 | Soybean plant response rating ([10]; 16 g ai/ha, 0 to 100 scale): 10 | Soybean plant response rating (0-100) [10, 29]: 0 | Wheat plant response rating ([11]; 16 g ai/ha, 0 to 100 scale): 30 | Wheat plant response rating (0-100) [11, 29]: 60 | Barnyardgrass plant response rating (0-100) [12, 30]: 100 | Barnyardgrass plant response rating (0 to 100 scale) [12, 31]: 60 | Blackgrass plant response rating (0-100) [13, 30]: 90 | Blackgrass plant response rating (0 to 100 scale) [13, 31]: 90 | Corn plant response rating (0-100) [14, 30]: 100 | Corn plant response rating (0 to 100 scale) [14, 31]: 90 | Galium plant response rating (0-100) [15, 30]: 60 | Galium plant response rating (0 to 100 scale) [15, 31]: 30 | Foxtail, Green plant response rating (0-100) [16, 30]: 90 | Foxtail, Green plant response rating (0 to 100 scale) [16, 31]: 80 | Horseweed plant response rating (0-100) [17, 30]: 20 | Horseweed plant response rating (0 to 100 scale) [17, 31]: 0 | Kochia plant response rating (0-100) [18, 30]: 80 | Kochia plant response rating (0 to 100 scale) [18, 31]: 30 | Oat, Wild plant response rating (0-100) [19, 30]: 90 | Oat, Wild plant response rating (0 to 100 scale) [19, 31]: 50 | Pigweed, Palmer plant response rating (0-100) [20, 30]: 70 | Pigweed, Palmer plant response rating (0 to 100 scale) [20, 31]: 10 | Ragweed plant response rating (0-100) [21, 30]: 50 | Ragweed plant response rating (0 to 100 scale) [21, 31]: 20 | Ryegrass, Italian plant response rating (0-100) [22, 30]: 70 | Ryegrass, Italian plant response rating (0 to 100 scale) [22, 31]: 20 | Soybean plant response rating (0-100) [23, 30]: 70 | Soybean plant response rating (0 to 100 scale) [23, 31]: 50 | Wheat plant response rating (0-100) [24, 30]: 90 | Wheat plant response rating (0 to 100 scale) [24, 31]: 80 | Plant response rating, Barnyardgrass (0 to 100 scale, 0 is no effect and 100 is complete control) [25]: 0 | Plant response rating, Ducksalad (0 to 100 scale, 0 is no effect and 100 is complete control) [26]: 0 | Plant response rating, Rice (0 to 100 scale, 0 is no effect and 100 is complete control) [27]: 0 | Plant response rating, Sedge, Umbrella (0 to 100 scale, 0 is no effect and 100 is complete control) [28]: 0
